Experimental data as given in article PMC6315844, “Two Novel Multi-Functional Peptides from Meat and Visceral Mass of Marine Snail Neptunea arthritica cumingii and Their Activities In Vitro and In Vivo” (Marine Drugs, 2018).
Values belong to the molecule of their own block, whether it stands above or below them. No end group written: not given here.

Columns and labels:
[1] = Thermal stability of synthetic peptides (DPPH and ACE activity retained); type: physicochemical; settings: incubated at 20, 40, 60 and 80 °C, samples 90 to 1800 μg/mL, p > 0.05
Description: A series of samples with concentration range from 90 μg/mL (corresponding to 69.28 μM and 93.26 μM for [sequence] and [sequence], respectively) to 1800μg/mL were used in stability analysis.

[2] = molecular target: T1, angiotensin-converting enzyme (from the rabbit lung) (Oryctolagus cuniculus, UniProt P12822); experiment: ACE-inhibitory activity; type: biochemical; settings: for ACE-Inhibitory Activity (%): fractions purified from M-F and VM-F using HILIC, all at the same concentration (not given), n = 3, mean ± SD; for EC50: natural purified peptide, Figure 3a, tests repeated three times, read-out: EC50 values of active peptides: ACE
T1 construct: angiotensin-converting enzyme (0.25 U·mL^−1, from the rabbit lung); purchased Sigma-Aldrich (Shanghai, China); host or cells: rabbit lung (tissue-derived)
T1 sequence (P12822 34-1310): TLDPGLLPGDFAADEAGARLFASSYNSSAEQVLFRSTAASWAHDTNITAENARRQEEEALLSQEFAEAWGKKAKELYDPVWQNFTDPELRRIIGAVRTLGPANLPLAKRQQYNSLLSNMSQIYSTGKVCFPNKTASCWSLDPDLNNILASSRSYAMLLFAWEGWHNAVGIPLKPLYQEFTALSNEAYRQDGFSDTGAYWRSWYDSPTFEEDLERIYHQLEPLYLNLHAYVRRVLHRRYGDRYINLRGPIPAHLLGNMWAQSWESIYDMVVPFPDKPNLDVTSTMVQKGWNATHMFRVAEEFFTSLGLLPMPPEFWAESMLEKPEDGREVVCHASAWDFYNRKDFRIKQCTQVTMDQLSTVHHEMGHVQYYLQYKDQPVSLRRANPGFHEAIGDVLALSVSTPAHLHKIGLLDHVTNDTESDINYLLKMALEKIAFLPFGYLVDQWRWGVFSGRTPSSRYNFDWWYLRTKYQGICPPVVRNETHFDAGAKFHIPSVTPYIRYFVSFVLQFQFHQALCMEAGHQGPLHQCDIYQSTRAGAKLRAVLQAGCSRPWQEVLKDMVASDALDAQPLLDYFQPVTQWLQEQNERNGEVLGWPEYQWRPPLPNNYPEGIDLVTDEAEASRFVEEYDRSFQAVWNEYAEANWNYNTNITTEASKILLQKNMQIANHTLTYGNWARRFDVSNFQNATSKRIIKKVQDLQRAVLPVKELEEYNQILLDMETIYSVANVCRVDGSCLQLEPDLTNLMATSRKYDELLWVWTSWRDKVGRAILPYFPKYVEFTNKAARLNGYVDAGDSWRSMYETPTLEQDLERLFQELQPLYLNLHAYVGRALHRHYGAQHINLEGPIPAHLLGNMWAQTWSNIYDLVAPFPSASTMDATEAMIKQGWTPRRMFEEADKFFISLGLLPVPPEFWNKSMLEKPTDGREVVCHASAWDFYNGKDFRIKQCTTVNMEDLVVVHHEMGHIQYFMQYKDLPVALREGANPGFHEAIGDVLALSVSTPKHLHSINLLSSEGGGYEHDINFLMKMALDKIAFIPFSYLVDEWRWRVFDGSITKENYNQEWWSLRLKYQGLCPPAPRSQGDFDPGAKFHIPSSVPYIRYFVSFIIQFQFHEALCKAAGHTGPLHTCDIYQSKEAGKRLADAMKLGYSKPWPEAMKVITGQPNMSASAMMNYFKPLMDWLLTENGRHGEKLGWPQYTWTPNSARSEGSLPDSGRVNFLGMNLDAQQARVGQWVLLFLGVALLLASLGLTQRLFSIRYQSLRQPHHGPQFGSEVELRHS
Excerpt: (§1) DPPH, angiotensin-converting enzyme (0.25 U·mL^−1, from the rabbit lung), N-hippuryl-His-Leu hydrate (HHL), hippuric acid, and amino acid standards were purchased from Sigma-Aldrich (Shanghai, China). α-Glucosidase protease (50 U/mg, from yeast), α-amylase protease (50 U/mg, from Bacillus subtilis), acarbose, 4-nitrophenyl-β-D-galactopyranoside, 6-aminoquinolyl-N-hydroxysuccinimidyl carbamate (AQC), ribonuclease (13,700 Da, from the bovine pancreas), aprotinin hydrochloride (6511 Da, from the bovine lung), angiotensin II (1046 Da), and L-serine (105 Da) were purchased from Yuanye Biological Technology Co. (Shanghai, China). Trypsin (250 U/mg), pepsin (250 U/mg), Sephadex G25 gel, nifedipine, and vitamin C were purchased from Solarbio (Beijing, China). Transgenic zebrafish Tg (krt4:NTR-hKikGR)^cy17 are maintained in our lab. All chemicals and reagents used for HPLC were of chromatographic grade and other chemicals and reagents were of analytical grade.
ACE-inhibitory activity was measured according to the methods of Chen et al.. Nifedipine was used as a positive control. Results were reported as EC50 values.

[3] = system: Tg (krt4:NTR-hKikGR)cy17 zebrafish; experiment: In vivo antioxidant activity in MTZ-treated transgenic zebrafish embryos (skin fluorescent spots); set-up: species or system zebrafish (Danio rerio); settings: 10 mM MTZ, 24 h, 28 °C, n = 10
Excerpt: For Tg (krt4:NTR-hKikGR)^cy17 zebrafish, MTZ treatment can lead to ROS overproduction, apoptosis of skin cells, and reduction of fluorescence spots on skin; thus, this model is used to assess ROS scavenging capacity of sample by measuring the growth rate of fluorescent spots (FS) on the skin of Tg (krt4:NTR-hKikGR)^cy17 transgenic zebrafish. Sample with antioxidant activity can remove ROS from transgenic zebrafish and prevent the skin cell apoptosis.
The number of fluorescence spots on the skin will increase after incubation with antioxidant. Thus, we can evaluate the ROS scavenging ability of samples on the basis of changes in the number of fluorescence spots compared with the MTZ-treatment. The in vivo antioxidant activity of the active peptides was evaluated according to previously described methods with some modification using the transgenic zebrafish line Tg (krt4:NTR-hKikGR)^cy17. Twenty-four-hour-old transgenic zebrafish embryos were added to 24-well cell culture plates (10 embryos/well) and incubated with 2 mL of 10 mM MTZ (dissolved in fish water) and active peptides for 24 h at 28 °C. […] After incubation, zebrafish embryos were anesthetized with tricaine (0.16%, w/v), and fluorescence was observed using an FSX100 Bio Imaging Navigator instrument. FS were counted using ImagePro-Plus, and the in vivo antioxidant activity (%) of active peptides was determined by Equation 1. […]

[4] = Ferric reducing capacity (reducing power, FRAP); settings: natural purified peptide, Figure 3a, tests repeated three times, read-out: EC50 values of active peptides: FRAP
Description: The reducing power of the peptide fractions was assayed as described by Moayedi et al.. Vitamin C was used as a positive control. The reducing power of active peptides was assayed by determining EC50 values.

[5] = DPPH radical scavenging activity; settings: for DPPH Radical Scavenging Activity (%): fractions purified from M-F and VM-F using HILIC, all at the same concentration (not given), n = 3, mean ± SD; for EC50: natural purified peptide, Figure 3a, tests repeated three times, read-out: EC50 values of active peptides: DPPH
Description: The DPPH radical scavenging activity of the two peptide fractions was determined according to the methods described by Lee et al.. Vitamin C was used as a positive control. The EC50 values for DPPH radical scavenging was determined.

[6] = system: α-amylase (from Bacillus subtilis); experiment: α-Amylase inhibitory activity; type: biochemical; settings: for α-Amylase Inhibitory Activity (%): fractions purified from M-F and VM-F using HILIC, all at the same concentration (not given), n = 3, mean ± SD; for EC50: natural purified peptide, Figure 3a, tests repeated three times, read-out: EC50 values of active peptides: α-amylase
Excerpt: as §1
(§2) α-Amylase and α-glucosidase inhibitory activities were assayed as described by Uraipong et al.. Acarbose was used as a positive control. The inhibitory activity of active peptides was expressed as the EC50 value.

[7] = molecular target: α-glucosidase (from yeast); experiment: α-Glucosidase inhibitory activity; type: biochemical; settings: natural purified peptide; Figure 3a; tests repeated three times; read-out: EC50 values of active peptides: α-glucosidase
Excerpt: as §1, §2

[8] = synthetic peptides; simulated gastrointestinal digestion; samples 90 to 1800 μg/mL; p > 0.05
Description: A series of samples with concentration range from 90 μg/mL (corresponding to 69.28 μM and 93.26 μM for […] and […], respectively) to 1800μg/mL were used in stability analysis.
Thermal stability and gastrointestinal digestion stability of two synthetic peptides were determined according to Chen et al.. The incubated temperature for peptide solutions was set as 20, 40, 60, and 80 °C, respectively. DPPH radical scavenging activities and ACE inhibitory activities of the peptide solutions were measured as the above description.

[9] = Hydroxyl radical scavenging activity; settings: natural purified peptide; Figure 3a; tests repeated three times; read-out: EC50 values of active peptides: OH
Description: The hydroxyl radical scavenging activity of peptide fractions was determined according to the methods described by Dong et al.. Vitamin C was used as a positive control. The hydroxyl radical activity of active peptides was evaluated by EC50.

ACE = settings: data recorded in biopep database; read-out: EC50 (ACE inhibition); cited from earlier work
Excerpt: ACE catalyzes the conversion of angiotensin I to angiotensin II, a potent vasoconstrictor, and promotes degradation of the vasodilator bradykinin [31]; thus, inhibition of ACE activity may help with reducing blood pressure. Because high-molecular-weight peptides cannot occupy the active site of ACE [32], ACE-inhibitory peptides are typically 2–30 amino acids in length.

[10] = molecular target: T2, angiotensin-converting enzyme (from the rabbit lung) (rabbit) (UniProt P12822)
T2 sequence: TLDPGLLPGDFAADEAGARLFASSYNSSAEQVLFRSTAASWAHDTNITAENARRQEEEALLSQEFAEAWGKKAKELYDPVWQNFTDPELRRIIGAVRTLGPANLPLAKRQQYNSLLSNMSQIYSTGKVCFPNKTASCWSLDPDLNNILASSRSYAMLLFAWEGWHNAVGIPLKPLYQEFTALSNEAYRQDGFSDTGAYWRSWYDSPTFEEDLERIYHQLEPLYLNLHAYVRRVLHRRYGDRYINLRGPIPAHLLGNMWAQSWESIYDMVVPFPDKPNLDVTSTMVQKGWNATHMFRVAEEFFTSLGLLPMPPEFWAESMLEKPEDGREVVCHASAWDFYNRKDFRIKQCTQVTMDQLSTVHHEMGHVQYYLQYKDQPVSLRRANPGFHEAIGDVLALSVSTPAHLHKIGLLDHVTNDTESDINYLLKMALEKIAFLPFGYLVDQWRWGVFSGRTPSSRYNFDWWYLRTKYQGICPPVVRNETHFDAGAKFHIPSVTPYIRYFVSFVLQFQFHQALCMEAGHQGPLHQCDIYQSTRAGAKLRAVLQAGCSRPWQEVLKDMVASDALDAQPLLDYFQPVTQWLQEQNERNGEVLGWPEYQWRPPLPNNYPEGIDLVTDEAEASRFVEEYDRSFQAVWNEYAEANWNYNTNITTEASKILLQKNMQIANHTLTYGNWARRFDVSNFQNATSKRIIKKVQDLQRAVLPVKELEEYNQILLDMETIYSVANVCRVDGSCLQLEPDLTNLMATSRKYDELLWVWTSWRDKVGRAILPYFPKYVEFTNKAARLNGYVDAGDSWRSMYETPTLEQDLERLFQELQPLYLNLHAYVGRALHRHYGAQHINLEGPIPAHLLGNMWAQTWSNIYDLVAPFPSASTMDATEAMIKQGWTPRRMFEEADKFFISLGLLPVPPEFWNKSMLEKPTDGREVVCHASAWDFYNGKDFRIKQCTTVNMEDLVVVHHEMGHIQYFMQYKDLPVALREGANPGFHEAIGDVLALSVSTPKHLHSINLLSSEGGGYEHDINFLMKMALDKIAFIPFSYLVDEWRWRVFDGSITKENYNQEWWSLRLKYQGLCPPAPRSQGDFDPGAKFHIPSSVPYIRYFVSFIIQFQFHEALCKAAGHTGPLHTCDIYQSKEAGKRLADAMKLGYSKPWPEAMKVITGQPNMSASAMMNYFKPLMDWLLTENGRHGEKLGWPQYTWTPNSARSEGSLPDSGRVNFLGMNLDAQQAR

Molecule: YIAEDAER [VM-P7, Tyr-Ile-Ala-Glu-Asp-Ala-Glu-Arg]
- effect of thermal treatment on EC50 values of DPPH radical scavenging and ACE inhibitory activities [1]: have thermal and gastrointestinal stability
- ACE-Inhibitory Activity (%) [2]: 74.95 ± 1.24%
- EC50 [2]: 236 µM
- number of fluorescent spots (FS) compared with negative control (MTZ without peptides) ([3]; low concentration): no significant difference
- EC50 [4]: 856 µM
- DPPH Radical Scavenging Activity (%) [5]: 82.60 ± 0.86%
- EC50 [5]: 185 µM
- α-Amylase Inhibitory Activity (%) [6]: 53.85 ± 0.92%
- EC50 [6]: 942 µM
- EC50 [7]: 823 µM
- effect of gastrointestinal digestion treatment on EC50 values of DPPH radical scavenging and ACE inhibitory activities [8]: have thermal and gastrointestinal stability
- EC50 [9]: 814 µM

Molecule: YIPIQYVLSR
- EC50 (ACE): 132 µM

Molecule: YLYEIAR
- EC50 (ACE): 16 µM

Molecule: YLYEIARR
- EC50 (ACE): 86 µM

Molecule: YSQLENEFDR [M-P6, Tyr-Ser-Gln-Leu-Glu-Asn-Glu-Phe-Asp-Arg]
- effect of thermal treatment on EC50 values of DPPH radical scavenging and ACE inhibitory activities [1]: have thermal and gastrointestinal stability
- ACE-Inhibitory Activity (%) [2]: 84.81 ± 0.35%
- EC50 [2]: 75.6 µM
- number of fluorescent spots (FS) compared to the control group (no MTZ or peptides) ([3]; high concentration): more FS were detected
- EC50 [4]: 430 µM
- DPPH Radical Scavenging Activity (%) [5]: 91.87 ± 0.62%
- EC50 [5]: 96.7 µM
- α-Amylase Inhibitory Activity (%) [6]: 56.15 ± 1.64%
- EC50 [6]: 692 µM
- EC50 [7]: 589 µM
- effect of gastrointestinal digestion treatment on EC50 values of DPPH radical scavenging and ACE inhibitory activities [8]: have thermal and gastrointestinal stability
- EC50 [9]: 234 µM

- ACE-inhibitory activity (%) of the HILIC-purified fraction M-P6 (enzyme activity; all fractions at the same concentration) [10]: 84.8%
Molecule: YSQLENEFDR [… (Tyr-Ser-Gln-Leu-Glu-Asn-Glu-Phe-Asp-Arg)]

- ACE-inhibitory activity (%) of the HILIC-purified fraction VM-P7 (enzyme activity; all fractions at the same concentration) [10]: 75%
Molecule: YIAEDAER [YIAEDAER (Tyr-Ile-Ala-Glu-Asp-Ala-Glu-Arg)]
